Data: PMC5607274, “An iterative compound screening contest method for identifying target protein inhibitors using the tyrosine-protein kinase Yes” (Scientific Reports, 2017)

Biological target: T1, human recombinant Yes [a.a. 2–543 (end)] (Homo sapiens, UniProt P07947)
T1 construct: human recombinant Yes [a.a; 2–543 (end)]; purchased BPS Bioscience 40488
Test: ADP-Glo kinase assay, inhibition rates of Yes phosphorylation activity (first and second screening)
Format: biochemical
Conditions: first screening; mean of n = 4 wells; 10 μmol L−1 compound
Summary of the method: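 ADP-Glo luminescence measured inhibition of human recombinant Yes (a.a. 2–543) phosphorylation activity. In the first screen, each compound ran in 4 wells and inhibition rates were averaged. The second screen retested hits as compounds dissolved from fresh powder.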

T1 sequence (P07947 2-543): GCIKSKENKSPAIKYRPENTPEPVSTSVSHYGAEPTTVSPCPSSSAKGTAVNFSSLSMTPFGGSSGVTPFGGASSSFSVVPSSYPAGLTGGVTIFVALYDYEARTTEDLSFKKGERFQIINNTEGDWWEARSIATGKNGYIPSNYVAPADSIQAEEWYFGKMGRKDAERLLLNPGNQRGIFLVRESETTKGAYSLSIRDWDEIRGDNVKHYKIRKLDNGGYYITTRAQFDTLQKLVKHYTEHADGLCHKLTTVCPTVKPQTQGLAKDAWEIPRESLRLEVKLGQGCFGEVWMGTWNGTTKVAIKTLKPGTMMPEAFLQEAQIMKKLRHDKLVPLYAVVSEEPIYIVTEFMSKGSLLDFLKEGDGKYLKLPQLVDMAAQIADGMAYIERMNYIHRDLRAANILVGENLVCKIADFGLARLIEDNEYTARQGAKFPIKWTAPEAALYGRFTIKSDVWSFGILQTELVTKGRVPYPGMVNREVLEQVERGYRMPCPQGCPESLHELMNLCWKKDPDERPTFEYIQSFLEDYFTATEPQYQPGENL

Row | SMILES | First screening IR (inhibition rate) [%]
1 | CCOC(=O)c1c(-c2ccc(OC)c(OC)c2)csc1NC(=O)CN1CCN(c2cccc(OC)c2)CC1 [Compound Z46357060] | 5
2 | CCN(C(=O)CN(C)CC(=O)Nc1ccc(Cl)cc1)c1cccc2ccccc12 [Compound Z46378572] | 33
3 | COc1cccc(NC(=O)CN(C)CC(=O)Nc2cc(Cl)ccc2C#N)c1 [Compound Z46385937] | 3
4 | CCOC(=O)c1c(-c2ccc(F)cc2)csc1NC(=O)CN1CCN(Cc2cc(OC)ccc2OC)CC1 [Compound Z46402002] | 5
5 | CCn1c(CN2CCN(C(=O)c3ccccc3)CC2)nc2cc(S(=O)(=O)N3CCOCC3)ccc21 [Compound Z46404320] | 1
6 | CCOC(=O)c1c(-c2ccc(OC)c(OC)c2)csc1NC(=O)CN1CCN(C(=O)c2ccccc2)CC1 [Compound Z46404770] | 2
7 | CCOC(=O)C1=C(CN2CCN(Cc3nc4sc5c(c4c(=O)[nH]3)CCCC5)CC2)NC(=O)NC1CC (centres unmarked) [Compound Z46405175] | 0
8 | CCN(C(=O)CN(C)CC(=O)Nc1c(C)cc(C)cc1C)c1cccc2ccccc12 [Compound Z46455760] | -4
9 | Cc1sc2nc(-c3cccc(NC(=O)CN4CCN(CC5CCCO5)CC4)c3)[nH]c(=O)c2c1C (centres unmarked) [Compound Z46510296] | 2
10 | Cc1cccc(/C=C/c2cc(C(=O)O)c3ccccc3n2)c1 [Compound Z46532935] | 46
11 | COc1ccc2c(c1)CC/C(=C\c1ccc(Cl)c(Cl)c1)C2=O [Compound Z46584361] | 30
12 | COc1ccc2c(c1)CC/C(=C\c1cccc(C)c1)C2=O [Compound Z46584406] | -6
13 | O=C(/C=C/c1cc2ccccc2nc1N1CCOCC1)c1ccc(S(=O)(=O)N2CCCC2)cc1 [Compound Z46590414] | 1
14 | CN(C)c1ccc(/C=c2/s/c(=C/C(=O)C(C)(C)C)[nH]c2=O)cc1 [Compound Z46615661] | -8
15 | Cc1ccc(-n2c(=O)/c(=C/c3ccc4c(c3)OCO4)s/c2=C(/C#N)C(=O)NCCN2CCOCC2)c(C)c1 [Compound Z47840324] | -11
16 | Cc1ccc(C)c(-n2c(=O)/c(=C/c3ccc(OC(F)F)cc3)s/c2=C(/C#N)C(=O)NCCN2CCOCC2)c1 [Compound Z47852683] | 15
17 | CN(C)c1ccc(/C=c2/s/c(=C(/C#N)C(=O)NCCN3CCOCC3)n(Cc3ccco3)c2=O)cc1 [Compound Z48025165] | 27
18 | Cc1ccc(NC(=O)CC2SC(=Nc3ccccc3C)N(CCCN3CCOCC3)C2=O)c([N+](=O)[O-])c1 (centres unmarked) [Compound Z48462494] | -3
19 | CCOC(=O)/C=c1\s/c(=C/c2ccc(N3CCCCC3)c([N+](=O)[O-])c2)c(=O)n1CC(=O)N1CCC(C)CC1 [Compound Z48712692] | 25
20 | CCOC(=O)/C=c1\s/c(=C/c2ccc(N3CCOCC3)c([N+](=O)[O-])c2)c(=O)n1CC(=O)N1CCC(C)CC1 [Compound Z48712790] | -4
21 | Cc1ccc(Cn2c(=O)/c(=C/c3ccc(N4CCOCC4)c([N+](=O)[O-])c3)s/c2=C/C(=O)C(C)(C)C)cc1 [Compound Z48770507] | 31
22 | N#C/C(=C(/O)CN1CCN(S(=O)(=O)c2ccccc2C#N)CC1)c1nc2ccccc2[nH]1 [Compound Z48805202] | -4
23 | NC(=O)c1cc(-c2csc(NCc3ccccc3)n2)ccc1O [Compound Z48850058] | 39

Row | SMILES | First screening IR (inhibition rate) [%]
24 | Cc1ccc(CNc2nc(-c3ccc(O)c(C(N)=O)c3)cs2)cc1 [Compound Z48851233] | 10
25 | COc1ccc(Nc2nc(-c3ccc(Cl)s3)cs2)cc1 [Compound Z48857068] | 4
26 | Cl.Fc1ccc(-c2cc(-c3ccccc3)c3cc(Cl)ccc3n2)cc1 [Compound Z48950786] | -4
27 | COc1cccc(-c2cc(-c3ccccc3)c3cc(Cl)ccc3n2)c1.Cl [Compound Z48950797] | 1
28 | Cc1ccc(-c2cc(-c3ccccc3)c3cc(Cl)ccc3n2)cc1.Cl [Compound Z48950811] | 59
29 | Cc1c(-c2ccccc2)nc2ccc(Cl)cc2c1-c1ccccc1.Cl [Compound Z48950813] | 20
30 | Cl.Oc1ccc(-c2cc(-c3ccccc3)c3cc(Cl)ccc3n2)cc1 [Compound Z48950817] | 51
31 | Cl.Clc1ccc(-c2cc(-c3ccccc3)c3cc(Cl)ccc3n2)cc1 [Compound Z48950819] | 36
32 | Cl.N#Cc1ccc(-c2cc(-c3ccccc3)c3cc(Cl)ccc3n2)cc1 [Compound Z48950825] | 58
33 | Cc1c(-c2ccc(O)cc2)nc2ccc(Cl)cc2c1-c1ccccc1.Cl [Compound Z48950829] | 33
34 | Cc1ccc(O)c(-c2cc(-c3ccccc3)c3cc(Cl)ccc3n2)c1.Cl [Compound Z48950854] | -11
35 | Cl.Oc1ccccc1-c1cc(-c2ccccc2)c2cc(Cl)ccc2n1 [Compound Z48950876] | 3
36 | Cl.Fc1ccc(-c2nc3ccc(Cl)cc3c(-c3ccccc3)c2CCCl)cc1 [Compound Z48950878] | 10
37 | Cl.Fc1ccccc1-c1cc(-c2ccccc2)c2ccccc2n1 [Compound Z48951009] | 5
38 | Cl.Fc1ccc(-c2cc(-c3ccccc3)c3ccccc3n2)cc1 [Compound Z48951014] | 18
39 | COc1cccc(-c2cc(-c3ccccc3)c3ccccc3n2)c1.Cl [Compound Z48951025] | -6
40 | Brc1ccc(-c2cc(-c3ccccc3)c3ccccc3n2)cc1.Cl [Compound Z48951036] | 5
41 | Cc1ccc(-c2cc(-c3ccccc3)c3ccccc3n2)cc1.Cl [Compound Z48951039] | 11
42 | Cl.Oc1ccc(-c2cc(-c3ccccc3)c3ccccc3n2)cc1 [Compound Z48951045] | 24
43 | Cl.Clc1ccc(-c2cc(-c3ccccc3)c3ccccc3n2)cc1 [Compound Z48951047] | 8
44 | COc1ccccc1-c1cc(-c2ccccc2)c2ccccc2n1.Cl [Compound Z48951051] | 3
45 | Cl.Fc1cccc(F)c1-c1cc(-c2ccccc2)c2ccccc2n1 [Compound Z48951059] | 4
46 | Cc1c(-c2ccc(OC(F)F)cc2)nc2ccccc2c1-c1ccccc1.Cl [Compound Z48951073] | 4

Row | SMILES | First screening IR (inhibition rate) [%]
47 | Cc1ccc(O)c(-c2cc(-c3ccccc3)c3ccccc3n2)c1.Cl [Compound Z48951082] | 1
48 | Cc1c(-c2ccccc2)nc2ccc(Cl)cc2c1-c1ccccc1Cl.Cl [Compound Z48951725] | -2
49 | Cl.Oc1ccc(-c2cc(-c3ccccc3Cl)c3cc(Cl)ccc3n2)cc1 [Compound Z48951729] | 10
50 | Cl.Clc1ccc(-c2cc(-c3ccccc3Cl)c3cc(Cl)ccc3n2)cc1 [Compound Z48951731] | -3
51 | Cl.N#Cc1ccc(-c2cc(-c3ccccc3Cl)c3cc(Cl)ccc3n2)cc1 [Compound Z48951737] | 1
52 | Cc1c(-c2ccc(O)cc2)nc2ccc(Cl)cc2c1-c1ccccc1Cl.Cl [Compound Z48951741] | 40
53 | Cc1ccc(-c2c3c(nc4sc5c(c24)CCC5)CCC(C(C)(C)C)C3)cc1.Cl (centres unmarked) [Compound Z48952614] | 4
54 | Cl.Fc1ccccc1-c1c2c(nc3ccc(Cl)cc13)-c1ccccc1OC2 [Compound Z48955788] | -15
55 | Cl.Fc1ccccc1-c1cc(-c2ccccc2F)c2cc(Cl)ccc2n1 [Compound Z48955797] | 11
56 | Cl.Fc1ccccc1-c1c2c(nc3ccc(Cl)cc13)-c1ccccc1CC2 [Compound Z48955803] | 15
57 | Cl.Fc1ccccc1-c1cc(-c2ccccc2)nc2ccc(Cl)cc12 [Compound Z48955825] | -1
58 | Cc1ccc(-c2cc(-c3ccccc3F)c3cc(Cl)ccc3n2)cc1.Cl [Compound Z48955827] | 12
59 | Cl.N#Cc1ccc(-c2cc(-c3ccccc3F)c3cc(Cl)ccc3n2)cc1 [Compound Z48955841] | 3
60 | Cc1c(-c2ccc(O)cc2)nc2ccc(Cl)cc2c1-c1ccccc1F.Cl [Compound Z48955845] | 3
61 | Cc1cc(C)nc(N/N=C/c2ccc3ncccc3c2)n1 [Compound Z49539423] | -6
62 | COc1cc(/C=N/NC(=O)c2cccnc2)ccc1OC(=O)c1cccnc1 [Compound Z49575448] | 10
63 | O=C(O)c1cccc(N/N=C/c2ccc(N(c3ccccc3)c3ccccc3)cc2)c1 [Compound Z49584790] | 18
64 | Oc1cccc(/C=N/Nc2ccnc3cc(Cl)ccc23)c1 [Compound Z49625857] | -13
65 | CCOc1cc(/C=N/Nc2ccnc3cc(Cl)ccc23)ccc1O [Compound Z49625899] | 9
66 | COc1ccc(/C=N/Nc2ccnc3cc(Cl)ccc23)cc1O [Compound Z49625943] | 26
67 | COc1cc(/C=N/Nc2ccnc3cc(Cl)ccc23)ccc1OC(F)F [Compound Z49626092] | -10

Same assay, conditions: second screening, dissolved from fresh powder; n = 4; 10 μmol L−1 compound

Row | SMILES | Second screening IR (inhibition rate) [%]
68 | CN(C)c1ccc(/C=c2/s/c(=C(/C#N)C(=O)NCCN3CCOCC3)n(Cc3ccco3)c2=O)cc1 [Compound Z48025165] | -4
69 | NC(=O)c1cc(-c2csc(NCc3ccccc3)n2)ccc1O [Compound Z48850058] | 28
70 | Cc1ccc(-c2cc(-c3ccccc3)c3cc(Cl)ccc3n2)cc1.Cl [Compound Z48950811] | -7
71 | Cl.Oc1ccc(-c2cc(-c3ccccc3)c3cc(Cl)ccc3n2)cc1 [Compound Z48950817] | -2
72 | Cl.Clc1ccc(-c2cc(-c3ccccc3)c3cc(Cl)ccc3n2)cc1 [Compound Z48950819] | -13
73 | Cc1c(-c2ccc(O)cc2)nc2ccc(Cl)cc2c1-c1ccccc1.Cl [Compound Z48950829] | 14
74 | COc1ccc(/C=N/Nc2ccnc3cc(Cl)ccc23)cc1O [Compound Z49625943] | -17
